Patent US9663496B2, “AMPK-activating heterocyclic compounds and methods for using the same” (Rigel Pharmaceuticals, Inc., priority 2010, dated 2017)

These compounds were tested against AMPK (assay: AMPK activation, enzyme-linked immunosorbent assay). Details: EC50 for AMPK activation, ELISA.
Assay type: biochemical
Procedure, shortened: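 Activation by each compound is measured using a conventional commercial immunoassay kit.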

EC50 [nM]	Compound
< 500	N#Cc1ccc(CN2CCC(NC(=O)c3ccc(C(=O)N4CCC(Oc5ccc(S(F)(F)(F)(F)F)cc5)CC4)nc3)CC2)cc1 [Compound 493, N-(1-(4-cyanobenzyl)piperidin-4-yl)-6-(4-(4-(pentafluorosulfanyl)phenoxy)piperidine-1-carbonyl)nicotinamide]
< 500	O=C(NC1CCN(Cc2ccc(OC(F)(F)F)cc2)CC1)c1ccc(C(=O)N2CCC(Oc3ccc(S(F)(F)(F)(F)F)cc3)CC2)nc1 [Compound 494, 6-(4-(4-(pentafluorosulfanyl)phenoxy)piperidine-1-carbonyl)-N-(1-(4-(trifluoromethoxy)benzyl)piperidin-4-yl)nicotinamide]
< 500	COc1ccc(CN2CCC(NC(=O)c3ccc(C(=O)N4CCC(Oc5ccc(S(F)(F)(F)(F)F)cc5)CC4)nc3)CC2)cc1 [Compound 495, N-(1-(4-methoxybenzyl)piperidin-4-yl)-6-(4-(4-(pentafluorosulfanyl)phenoxy)piperidine-1-carbonyl)nicotinamide]
< 500	O=C(Nc1ccc(Oc2ccc(F)cc2)nc1)c1ccc(C(=O)N2CCC(Oc3ccc(S(F)(F)(F)(F)F)cc3)CC2)nc1 [Compound 496, N-(6-(4-fluorophenoxy)pyridin-3-yl)-6-(4-(4-(pentafluorosulfanyl)phenoxy)piperidine-1-carbonyl)nicotinamide]
< 500	N#Cc1ccc(Oc2ccc(NC(=O)c3ccc(C(=O)N4CCC(Oc5ccc(S(F)(F)(F)(F)F)cc5)CC4)nc3)cn2)cc1 [Compound 497, N-(6-(4-cyanophenoxy)pyridin-3-yl)-6-(4-(4-(pentafluorosulfanyl)phenoxy)piperidine-1-carbonyl)nicotinamide]
< 500	COc1ccc(C(=O)C2CCN(C(=O)c3ccc(C(=O)NC4CCN(Cc5ccc(C#N)cc5)CC4(F)F)cn3)CC2)cc1 (stereo not drawn) [Compound 498, N-(1-(4-cyanobenzyl)-3,3-difluoropiperidin-4-yl)-6-(4-(4-methoxybenzoyl)piperidine-1-carbonyl)nicotinamide]
